We go through one compound from patent US20240336628A1, “NOVEL COMPOUNDS, COMPOSITIONS, AND THERAPEUTIC USES THEREOF” (Breakpoint Therapeutics GmbH, priority 2023, published 2024).

This assay deals with T1, Polθ (truncated Polθ-Hel protein containing the helicase domain 67-894) (Homo sapiens, UniProt O75417).
T1 construct: a truncated Polθ protein (Polθ-Hel containing the helicase domain (67-894))
As to the kind of experiment: Polθ ATPase assay (Biological Assay 1, ADP-Glo luminescence). It counts as biochemical. The settings on record: Table B (Part B compounds); same assay as Biological Assay 1. As for the experimental part:
The Polθ ATPase assay was used to evaluate inhibitors of Polθ ATPase activity, in vitro. Experiments were performed using a truncated Polθ protein (Polθ-Hel containing the helicase domain (67-894), ATP and a DNA single strand Oligo (5′-CTGTCCTGCATGATG-3′) in the Polθ assay buffer (20 mM Tis-HCl (pH 8.8), MgCl2 5 mM, tween20 0.01%, NP40 0.01%, BSA 0.01%, DTT 1 mM). 2 μL of assay buffer containing Pole-Hel protein (0.5 nM) and DNA substrate (500 nM) was transferred into assay ready plates, containing 0.04 μL of compounds diluted in DMSO. After a 30 minutes incubation at 23° C. in the dark, the reaction was triggered by adding 2 μL of ATP (60 μM), in assay buffer. After 60 minutes at 23° C., 4 μl of ADP-Glo™ Reagent (Glo 1) was added followed by 40 minutes of incubation, then 8 μl of ADP-Glom kinase Detection Reagent (Glo 2) followed by 60 minutes of incubation at 23° C. Luminescence was then measured using Tecan F200 infinite plate reader. Raw data were analysed using GeneData to generate IC50 values.
The Polθ ATPase assay described in Biological Assay 1 above was used to evaluate inhibitors of Polθ ATPase activity for the compounds described in the Experimental Part B above, in vitro.
Background: ADP-Glo first removes unused ATP, then detects ADP through luciferase.

T1 sequence (O75417 67-894): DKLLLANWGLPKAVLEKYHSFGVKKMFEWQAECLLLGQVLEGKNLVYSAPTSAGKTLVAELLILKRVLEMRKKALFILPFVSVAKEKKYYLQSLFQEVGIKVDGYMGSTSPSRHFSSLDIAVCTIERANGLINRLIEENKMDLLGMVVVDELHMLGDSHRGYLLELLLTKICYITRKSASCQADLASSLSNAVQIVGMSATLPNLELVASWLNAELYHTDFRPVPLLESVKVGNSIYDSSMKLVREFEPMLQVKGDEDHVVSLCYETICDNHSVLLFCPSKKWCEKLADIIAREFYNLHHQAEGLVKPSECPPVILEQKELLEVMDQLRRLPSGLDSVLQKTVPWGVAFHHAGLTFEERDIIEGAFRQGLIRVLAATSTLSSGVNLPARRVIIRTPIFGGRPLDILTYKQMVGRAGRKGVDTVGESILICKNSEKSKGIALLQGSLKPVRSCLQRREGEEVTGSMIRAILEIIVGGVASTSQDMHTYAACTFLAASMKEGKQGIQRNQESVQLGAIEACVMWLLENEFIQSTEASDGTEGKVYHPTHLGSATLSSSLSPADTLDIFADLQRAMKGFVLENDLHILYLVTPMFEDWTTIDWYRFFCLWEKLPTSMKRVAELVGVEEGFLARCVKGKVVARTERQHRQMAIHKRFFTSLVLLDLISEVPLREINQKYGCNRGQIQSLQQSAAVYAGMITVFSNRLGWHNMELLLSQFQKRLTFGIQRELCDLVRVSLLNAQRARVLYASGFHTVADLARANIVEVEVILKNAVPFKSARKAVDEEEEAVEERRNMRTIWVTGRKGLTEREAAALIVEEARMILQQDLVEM

For orientation: IC50 means the concentration needed to halve the response being measured. The low end stands for higher potency, the high end for lower potency. In the case of `COc1cnc(Cl)cc1-c1cn(C)c(=O)cc1C(=O)Nc1nc2cnc(N3CCC(O)CC3)nc2s1` [Example 125], the IC50 was under 100 nM.
